Test results published in ChEMBL document CHEMBL4024724, “Synthesis of new 3-(2-mercapto-4-oxo-4H-quinazolin-3-yl)-benzenesulfonamides with strong inhibition properties against the tumor associated carbonic anhydrases IX and XII” (Bioorg Med Chem, 2017).

The compounds below were run against Carbonic anhydrase 9 (Homo sapiens, UniProt Q16790) (assay: Inhibition of recombinant human carbonic anhydrase 9 incubated for 15 mins prior to testing by stopped flow CO2 hydration assay).

| Ki [nM] | SMILES |
| --- | --- |
| 19.8 | COc1cc2nc(S)n(-c3cccc(S(N)(=O)=O)c3)c(=O)c2cc1OC |
| 1.5 | NS(=O)(=O)c1cccc(-n2c(S)nc3ccc(I)cc3c2=O)c1 |
| 4.4 | NS(=O)(=O)c1cccc(-n2c(S)nc3ccc(F)cc3c2=O)c1 |
| 58.9 | Cc1ccc2nc(S)n(-c3cccc(S(N)(=O)=O)c3)c(=O)c2c1 |
| 2.7 | NS(=O)(=O)c1cccc(-n2c(S)nc3cc(F)ccc3c2=O)c1 |
| 4 | NS(=O)(=O)c1cccc(-n2c(S)nc3c(Br)cccc3c2=O)c1 |
| 15.4 | NS(=O)(=O)c1cccc(-n2c(S)nc3cc(Cl)ccc3c2=O)c1 |
| 15.6 | COc1cccc2c(=O)n(-c3cccc(S(N)(=O)=O)c3)c(S)nc12 |
| 20.1 | COc1cc2c(=O)n(-c3cccc(S(N)(=O)=O)c3)c(S)nc2c(OC)c1OC |
| 25 | COc1ccc2c(=O)n(-c3cccc(S(N)(=O)=O)c3)c(S)nc2c1 |
| 13 | COc1ccc2nc(S)n(-c3cccc(S(N)(=O)=O)c3)c(=O)c2c1 |
| 76.1 | NS(=O)(=O)c1cccc(-n2c(S)nc3ccccc3c2=O)c1 |
| 25.2 | Cc1cccc2c(=O)n(-c3cccc(S(N)(=O)=O)c3)c(S)nc12 |
| 9.5 | NS(=O)(=O)c1cccc(-n2c(S)nc3c(Cl)cccc3c2=O)c1 |
| 45.1 | NS(=O)(=O)c1cccc(-n2c(S)nc3ccc(Cl)cc3c2=O)c1 |
| 16.8 | NS(=O)(=O)c1cccc(-n2c(S)nc3cc(Br)ccc3c2=O)c1 |
| 34.5 | Cc1cc2nc(S)n(-c3cccc(S(N)(=O)=O)c3)c(=O)c2cc1C |
